A short description of the data set: Solubility (24 hrs equilibration at RT, HPLC-UV). Conditions: thermodynamic from solid, target concentration 5 mg/ml, 24 hrs at RT. Format: physicochemical. How it is done: Representative Compounds of the Disclosure were tested for solubity (Table 4) as follows:
0.1 M Phosphate Buffer Ionic Strength ˜0.15M
Simulated Intestinal Fluid pH 7.5 (USP)
Weigh ˜2 mgs of compound into clean glass 1 dram vails.
Add ˜[…] of appropriate media to vial to yield a target concentration of 5 mg/ml.
Place vials on a rotating shaker and equilibrate for 24 hrs. at RT.
Remove supernatant to microcentrifuge tubes and centrifuge at 1300 rpm for 30 minutes.
Remove an aliquot of supernatant, dilute accordingly with acetonitrile.
Assay Samples by HPLC-UV Against Standards.

[1] abbreviates: biorelevant, Simulated Intestinal Fluid pH 7.5 (USP), read-out: Solubility SIF.
[2] abbreviates: pH 7.4, aqueous buffer, 0.1 M Phosphate Buffer, read-out: Solubility pH 7.4.

Our source for the solubility values is patent US9944659B2, “Boron-containing diacylhydrazine compounds” (Intrexon Corporation, priority 2014, dated 2018).

≈ marks a conversion by molar mass, not a printed value. Read-outs that look alike come from different tables or passages of the source.

The solubility is the concentration that dissolves in the medium under given conditions.

As to `COc1cccc(C(=O)NN(C(=O)c2ccc3c(c2)B(O)NC3)C(C)(C)C)c1C` [compound 9, N-(tert-butyl)-1-hydroxy-N′-(3-methoxy-2-methylbenzoyl)-2,3-dihydro-1H-benzo[c][1,2]azaborole-6-carbohydrazide], the solubility at 24 h reads like this: under setting [1], 4510 µg/mL (≈ 11400 µM); under setting [2], 4920 µg/mL (≈ 12400 µM).

Consider `Cc1cc(C)cc(C(=O)N(NC(=O)c2ccc3c(c2)B(O)ON=C3)C(C)(C)C)c1` [compound 20, N′-(tert-butyl)-N′-(3,5-dimethylbenzoyl)-1-hydroxy-1H-benzo[d][1,2,6]oxazaborinine-7-carbohydrazide], for which the solubility at 24 h runs as follows: under setting [1], 3330 µg/mL (≈ 8470 µM); under setting [2], 2680 µg/mL (≈ 6820 µM).

Turning to `Cc1cc(C)cc(C(=O)N(NC(=O)c2ccc3c(c2)B(O)NC3)C(C)(C)C)c1` [compound 1, N′-(tert-butyl)-N′-(3,5-dimethylbenzoyl)-1-hydroxy-2,3-dihydro-1H-benzo[c][1,2]azaborole-6-carbohydrazide], the solubility at 24 h under setting [1] was 4870 µg/mL (≈ 12900 µM) and the solubility at 24 h under setting [2] was above 5000 µg/mL.

As for `Cc1cc(C)cc(C(=O)N(NC(=O)c2ccc(CC#N)c(B(O)O)c2)C(C)(C)C)c1` [compound 19, (5-(2-(tert-butyl)-2-(3,5-dimethylbenzoyl)hydrazine-1-carbonyl)-2-(cyanomethyl)phenyl)boronic acid], the solubility at 24 h is 31.4 µg/mL (≈ 77.1 µM) under setting [1] and 16.8 µg/mL (≈ 41.2 µM) under setting [2].

Take `Cc1cc(C)cc(C(=O)N(NC(=O)c2ccc3c(c2)N=COB3O)C(C)(C)C)c1` [compound 3, N′-(tert-butyl)-N′-(3,5-dimethylbenzoyl)-1-hydroxy-1H-benzo[c][1,5,2]oxazaborinine-6-carbohydrazide]: the solubility at 24 h is 90.2 µg/mL (≈ 229 µM) under setting [1] and 39.4 µg/mL (≈ 100 µM) under setting [2].

For the compound `Cc1cc(C)cc(C(=O)N(NC(=O)c2ccc(B(O)O)c(NS(=O)(=O)c3ccccc3)c2)C(C)(C)C)c1` [compound 7, (4-(2-(tert-butyl)-2-(3,5-dimethylbenzoyl)hydrazine-1-carbonyl)-2-(phenylsulfonamido)phenyl)boronic acid], the solubility at 24 h under setting [1] is 10.7 µg/mL (≈ 20.4 µM) and the solubility at 24 h under setting [2] was determined as 4.1 µg/mL (≈ 7.83 µM).

`COc1cccc(C(=O)NN(C(=O)c2ccc3c(c2)N=C(C)OB3O)C(C)(C)C)c1C` [compound 12, N-(tert-butyl)-1-hydroxy-N′-(3-methoxy-2-methylbenzoyl)-3-methyl-1H-benzo[c][1,5,2]oxazaborinine-6-carbohydrazide]: the solubility at 24 h under setting [1] was 3800 µg/mL (≈ 8970 µM) and the solubility at 24 h under setting [2] was 3760 µg/mL (≈ 8880 µM).

With `CNCc1ccc(C(=O)NN(C(=O)c2cc(C)cc(C)c2)C(C)(C)C)cc1B(O)O` [compound 10, (5-(2-(tert-butyl)-2-(3,5-dimethylbenzoyl)hydrazine-1-carbonyl)-2-((methylamino)methyl)phenyl)boronic acid], the solubility at 24 h is 4800 µg/mL (≈ 11700 µM) under setting [1] and 4870 µg/mL (≈ 11800 µM) under setting [2].

As for `Cc1cc(C)cc(C(=O)N(NC(=O)c2ccc(B(O)O)c(NCC#N)c2)C(C)(C)C)c1` [compound 17, (4-(2-(tert-butyl)-2-(3,5-dimethylbenzoyl)hydrazine-1-carbonyl)-2-((cyanomethyl)amino)phenyl)boronic acid], the solubility at 24 h under setting [1] was 59.3 µg/mL (≈ 140 µM) and the solubility at 24 h under setting [2] came to 0.13 µg/mL (≈ 0.308 µM).

In the case of `Cc1cc(C)cc(C(=O)NNC(=O)c2ccc3c(c2)N=C(C(F)(F)F)OB3O)c1` [compound 6, N′-(3,5-dimethylbenzoyl)-1-hydroxy-3-(trifluoromethyl)-1H-benzo[c][1,5,2]oxazaborinine-6-carbohydrazide], the solubility at 24 h runs as follows: under setting [1], 0.4 µg/mL (≈ 0.987 µM); under setting [2], 1.7 µg/mL (≈ 4.2 µM).

For `COc1cccc(C(=O)NN(C(=O)c2ccc(B(O)O)c(NS(=O)(=O)c3ccccc3)c2)C(C)(C)C)c1C` [compound 16, (4-(1-(tert-butyl)-2-(3-methoxy-2-methylbenzoyl)hydrazine-1-carbonyl)-2-(phenylsulfonamido)phenyl)boronic acid], the solubility at 24 h was 24.1 µg/mL (≈ 44.7 µM) under setting [1] and 6.9 µg/mL (≈ 12.8 µM) under setting [2].

As for `COc1cccc(C(=O)NN(C(=O)c2ccc3c(c2)N=COB3O)C(C)(C)C)c1C` [compound 13, N-(tert-butyl)-1-hydroxy-N′-(3-methoxy-2-methylbenzoyl)-1H-benzo[c][1,5,2]oxazaborinine-6-carbohydrazide], the solubility at 24 h by setting is: under setting [1], 334 µg/mL (≈ 815 µM); under setting [2], 221 µg/mL (≈ 540 µM).

On to `Cc1cc(C)cc(C(=O)N(NC(=O)c2ccc3c(c2)NC(=S)N(c2ccccc2)B3O)C(C)(C)C)c1` [compound 4, N′-(tert-butyl)-N′-(3,5-dimethylbenzoyl)-1-hydroxy-2-phenyl-3-thioxo-1,2,3,4-tetrahydrobenzo[c][1,5,2]diazaborinine-6-carbohydrazide], for which the solubility at 24 h under setting [1] was 2640 µg/mL (≈ 5280 µM) and the solubility at 24 h under setting [2] came to 3560 µg/mL (≈ 7120 µM).

Consider `Cc1cc(C)cc(C(=O)N(NC(=O)c2ccc(CN(C)C)c(B(O)O)c2)C(C)(C)C)c1` [compound 11, (5-(2-(tert-butyl)-2-(3,5-dimethylbenzoyl)hydrazine-1-carbonyl)-2-((dimethylamino)methyl)phenyl)boronic acid], for which the solubility at 24 h under setting [1] is 4650 µg/mL (≈ 10900 µM) and the solubility at 24 h under setting [2] was 4700 µg/mL (≈ 11100 µM).

Take `CC1=Nc2cc(C(=O)NN(C(=O)c3cc(C)cc(C)c3)C(C)(C)C)ccc2B(O)O1` [compound 2, N′-(tert-butyl)-N′-(3,5-dimethylbenzoyl)-1-hydroxy-3-methyl-1H-benzo[c][1,5,2]oxazaborinine-6-carbohydrazide]: the solubility at 24 h runs as follows: under setting [1], 4050 µg/mL (≈ 9940 µM); under setting [2], 4310 µg/mL (≈ 10600 µM).

As to `COc1cccc(C(=O)NN(C(=O)c2ccc3c(c2)NC(=O)N(c2ccccc2)B3O)C(C)(C)C)c1C` [compound 15, N-(tert-butyl)-1-hydroxy-N′-(3-methoxy-2-methylbenzoyl)-3-oxo-2-phenyl-1,2,3,4-tetrahydrobenzo[c][1,5,2]diazaborinine-6-carbohydrazide], the solubility at 24 h under setting [1] is 417 µg/mL (≈ 833 µM) and the solubility at 24 h under setting [2] was 540 µg/mL (≈ 1080 µM).

Take `Cc1cc(C)cc(C(=O)N(NC(=O)c2ccc3c(c2)B(O)NCC3)C(C)(C)C)c1` [compound 18, N′-(tert-butyl)-N′-(3,5-dimethylbenzoyl)-1-hydroxy-1,2,3,4-tetrahydrobenzo[c][1,2]azaborinine-7-carbohydrazide]: the solubility at 24 h runs as follows: under setting [1], 492 µg/mL (≈ 1250 µM); under setting [2], 505 µg/mL (≈ 1280 µM).

Consider `COc1cccc(C(=O)NN(C(=O)c2ccc3c(c2)B(O)OC3)C(C)(C)C)c1C` [compound 8, N-(tert-butyl)-1-hydroxy-N′-(3-methoxy-2-methylbenzoyl)-1,3-dihydrobenzo[c][1,2]oxaborole-6-carbohydrazide], for which the solubility at 24 h reads like this: under setting [1], 121 µg/mL (≈ 305 µM); under setting [2], 42.3 µg/mL (≈ 107 µM).
